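48-hour exposure; five concentrations; linearly interpolated endpoints. GI50 marks 50% less growth.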 Calls of active or inactive are those of the source. Cut-off read from the data, not from the text of the source: active = GI50 up to about 1.1 µM and inactive = higher.
Columns and labels:
Assay in all cases: NCI anticancer screen, dose series, 48 h
SK-MEL-2 = tested on: SK-MEL-2
NCI-H460 = tested on: NCI-H460
SNB-78 = tested on: SNB-78
MOLT-4 = tested on: MOLT-4
UACC-257 = tested on: UACC-257
EKVX = tested on: EKVX
K562 = tested on: K562
NCI-H226 = tested on: NCI-H226
KM12 = tested on: KM12
HT-29 = tested on: HT-29
A549 = tested on: A549
OVCAR-4 = tested on: OVCAR-4
HCT-116 = tested on: HCT-116
NCI-H522 = tested on: NCI-H522
786-0 = tested on: 786-0
UACC-62 = tested on: UACC-62
MDA-MB-231 = tested on: MDA-MB-231
T47D = tested on: T47D
MCF7 = tested on: MCF7
PC-3 = tested on: PC-3

Compound | GI50 (SK-MEL-2) | GI50 (NCI-H460) | GI50 (SNB-78) | GI50 (MOLT-4) | GI50 (UACC-257) | GI50 (EKVX) | GI50 (K562) | GI50 (NCI-H226) | GI50 (KM12) | GI50 (HT-29) | GI50 (A549) | GI50 (OVCAR-4) | GI50 (HCT-116) | GI50 (NCI-H522) | GI50 (786-0) | GI50 (UACC-62) | GI50 (MDA-MB-231) | GI50 (T47D) | GI50 (MCF7) | GI50 (PC-3)
Cc1cn(C2CC(OC3CCCCO3)C(CO)O2)c(=O)[nH]c1=O (configuration not stated) | > 100 µM (inactive) | > 100 µM (inactive) | > 100 µM (inactive) | > 100 µM (inactive) | > 100 µM (inactive) | > 100 µM (inactive) | > 100 µM (inactive) | > 100 µM (inactive) | > 100 µM (inactive) | > 100 µM (inactive) | > 100 µM (inactive) | > 100 µM (inactive) | > 100 µM (inactive) | > 100 µM (inactive) | > 100 µM (inactive) |  |  |  |  | 
CN(C)CC1CCC/C1=N\O (configuration not stated) | > 100 µM (inactive) | > 100 µM (inactive) | > 100 µM (inactive) | > 100 µM (inactive) | > 100 µM (inactive) |  | > 100 µM (inactive) | > 100 µM (inactive) |  | > 100 µM (inactive) |  | > 100 µM (inactive) | > 100 µM (inactive) | > 100 µM (inactive) | > 100 µM (inactive) | > 100 µM (inactive) |  |  |  | 
COC(=O)C1=C(c2cc(OC)c(OC)c(OC)c2)OC(c2ccc3c(c2)OCO3)C1 (configuration not stated) |  | 31.7 µM (inactive) | 87.3 µM (inactive) | 15.8 µM (inactive) | 54.3 µM (inactive) | 27 µM (inactive) | 9.48 µM (inactive) | 56 µM (inactive) | 13.2 µM (inactive) | 27.2 µM (inactive) | 34.5 µM (inactive) | 40.5 µM (inactive) | 32.9 µM (inactive) |  | 35.2 µM (inactive) | 5.05 µM (inactive) |  |  |  | 
O=C(O)/C(Cl)=C(\Cl)C(=O)NC1C2CC3CC(C2)CC1C3 (configuration not stated) |  |  | > 100 µM (inactive) | > 100 µM (inactive) | > 100 µM (inactive) | > 100 µM (inactive) | > 100 µM (inactive) | > 100 µM (inactive) | 9.64 µM (inactive) | > 100 µM (inactive) | > 100 µM (inactive) | > 100 µM (inactive) | > 100 µM (inactive) | > 100 µM (inactive) | > 100 µM (inactive) | > 100 µM (inactive) |  |  |  | 
CCCC(=O)OCC(O)CO (configuration not stated) | 3780 µM (inactive) | 4570 µM (inactive) | > 5000 µM (inactive) | > 5000 µM (inactive) | > 5000 µM (inactive) |  | 4880 µM (inactive) | > 5000 µM (inactive) | > 5000 µM (inactive) | > 5000 µM (inactive) | > 5000 µM (inactive) | > 5000 µM (inactive) | > 5000 µM (inactive) | 3740 µM (inactive) | > 5000 µM (inactive) | 2170 µM (inactive) |  |  |  | 
CC12CC3C(CC1SCC(=O)O2)C3(C)C (configuration not stated) | > 100 µM (inactive) | > 100 µM (inactive) | > 100 µM (inactive) | > 100 µM (inactive) | > 100 µM (inactive) | > 100 µM (inactive) | > 100 µM (inactive) |  | > 100 µM (inactive) | > 100 µM (inactive) | > 100 µM (inactive) | > 100 µM (inactive) | > 100 µM (inactive) |  | > 100 µM (inactive) |  |  |  |  | 
CC(=O)OC12c3ccccc3C1CCCCCC21OCCCO1 (configuration not stated) | > 100 µM (inactive) | > 100 µM (inactive) | > 100 µM (inactive) | > 100 µM (inactive) |  |  | > 100 µM (inactive) | > 100 µM (inactive) | > 100 µM (inactive) | > 100 µM (inactive) | > 100 µM (inactive) | > 100 µM (inactive) | > 100 µM (inactive) | > 100 µM (inactive) | > 100 µM (inactive) | > 100 µM (inactive) |  |  |  | 
CC(=O)Nc1ccc(-c2nnc(SCC(=O)Nc3ccc([N+](=O)[O-])cc3)o2)cc1 | 14.3 µM (inactive) | 15.2 µM (inactive) | 16.1 µM (inactive) | 12.2 µM (inactive) | 12.1 µM (inactive) |  | 36.4 µM (inactive) | 15.7 µM (inactive) | 14.5 µM (inactive) | 13.4 µM (inactive) | 17.5 µM (inactive) | 13.4 µM (inactive) | 12.5 µM (inactive) | 7.85 µM (inactive) | 11.3 µM (inactive) | 9.84 µM (inactive) |  |  |  | 
CCc1ccc(/C(C)=N/NC(N)=S)cc1 | > 100 µM (inactive) |  | > 100 µM (inactive) | 17.2 µM (inactive) |  | > 100 µM (inactive) | 57.3 µM (inactive) |  | > 100 µM (inactive) | 90.4 µM (inactive) | 81.1 µM (inactive) | 37.6 µM (inactive) | > 100 µM (inactive) |  | > 100 µM (inactive) | 31.8 µM (inactive) |  |  |  | 
Nc1ncnc2c1ncn2CCOC(c1ccccc1)P(=O)(O)O (configuration not stated) | > 100 µM (inactive) | > 100 µM (inactive) | > 100 µM (inactive) | > 100 µM (inactive) | > 100 µM (inactive) | > 100 µM (inactive) |  | > 100 µM (inactive) | > 100 µM (inactive) | > 100 µM (inactive) | > 100 µM (inactive) |  | > 100 µM (inactive) | > 100 µM (inactive) | > 100 µM (inactive) | > 100 µM (inactive) |  |  |  | 
CC(CC(=O)N1C(=O)C(C)(C)[C@@H](O)[C@H]1CC(C)C(Cl)(Cl)Cl)C(Cl)(Cl)Cl (some centres not stated) |  | > 100 µM (inactive) | > 100 µM (inactive) | > 100 µM (inactive) | > 100 µM (inactive) | > 100 µM (inactive) | > 100 µM (inactive) | > 100 µM (inactive) | > 100 µM (inactive) | > 100 µM (inactive) | > 100 µM (inactive) | > 100 µM (inactive) | > 100 µM (inactive) | > 100 µM (inactive) | > 100 µM (inactive) | > 100 µM (inactive) |  |  |  | 
Cc1ccc(C2=C(c3ccc(C)cc3)C(c3ccc(C)cc3)=C(c3ccc(C)cc3)C2=O)cc1 | > 100 µM (inactive) | > 100 µM (inactive) | > 100 µM (inactive) | > 100 µM (inactive) | > 100 µM (inactive) | > 100 µM (inactive) | > 100 µM (inactive) | > 100 µM (inactive) | > 100 µM (inactive) | > 100 µM (inactive) | > 100 µM (inactive) |  | > 100 µM (inactive) | > 100 µM (inactive) | > 100 µM (inactive) |  |  |  |  | 
CCCCCCCCCCCCCCCC(=O)OC1C(O)C(O)C(O)C(O)C12CO2 (configuration not stated) | 37.3 µM (inactive) | > 100 µM (inactive) |  | 12.2 µM (inactive) | > 100 µM (inactive) | 22.7 µM (inactive) | 24.7 µM (inactive) | 42.8 µM (inactive) | 36.2 µM (inactive) | 45.4 µM (inactive) | > 100 µM (inactive) | 55.1 µM (inactive) | 24.3 µM (inactive) | 33 µM (inactive) | 18.6 µM (inactive) | 28.4 µM (inactive) | 34.4 µM (inactive) | > 100 µM (inactive) | 16.2 µM (inactive) | 20.9 µM (inactive)
C[Si](C)(C)/C=C\CCO | > 100 µM (inactive) | > 100 µM (inactive) | > 100 µM (inactive) | > 100 µM (inactive) | > 100 µM (inactive) | > 100 µM (inactive) | > 100 µM (inactive) |  | > 100 µM (inactive) | > 100 µM (inactive) | > 100 µM (inactive) |  | > 100 µM (inactive) | > 100 µM (inactive) | > 100 µM (inactive) | > 100 µM (inactive) |  |  |  | 
c1ccc(CNCCN2CCNCC2)nc1 | > 100 µM (inactive) | > 100 µM (inactive) |  | > 100 µM (inactive) | > 100 µM (inactive) | > 100 µM (inactive) | > 100 µM (inactive) | > 100 µM (inactive) | > 100 µM (inactive) | > 100 µM (inactive) | > 100 µM (inactive) | > 100 µM (inactive) | > 100 µM (inactive) | > 100 µM (inactive) | > 100 µM (inactive) | > 100 µM (inactive) | > 100 µM (inactive) | > 100 µM (inactive) | > 100 µM (inactive) | > 100 µM (inactive)
CC(C)(C)NC(=O)NC12CC3CC(CC(F)(C3)C1)C2 | > 100 µM (inactive) | > 100 µM (inactive) | > 100 µM (inactive) | > 100 µM (inactive) | > 100 µM (inactive) | > 100 µM (inactive) | > 100 µM (inactive) |  | > 100 µM (inactive) | > 100 µM (inactive) | > 100 µM (inactive) |  | > 100 µM (inactive) | > 100 µM (inactive) | > 100 µM (inactive) | > 100 µM (inactive) |  |  |  | 
Cc1ccc(O)c(Cc2nc3ccccc3nc2-c2cccc(Br)c2)c1 | > 100 µM (inactive) | > 100 µM (inactive) |  | 25.2 µM (inactive) | 45.7 µM (inactive) | > 100 µM (inactive) | 34.4 µM (inactive) | > 100 µM (inactive) | > 100 µM (inactive) | > 100 µM (inactive) | > 100 µM (inactive) | > 100 µM (inactive) | 48.5 µM (inactive) | 44.2 µM (inactive) | 57 µM (inactive) | > 100 µM (inactive) | > 100 µM (inactive) | > 100 µM (inactive) | 37.1 µM (inactive) | > 100 µM (inactive)
NS(=O)(=O)c1ccc(NC(=S)NC(=O)Nc2ccc(Cl)c(Cl)c2)cc1 | 15 µM (inactive) | 13 µM (inactive) |  | 7.6 µM (inactive) | 17.9 µM (inactive) | 23.7 µM (inactive) | 4.55 µM (inactive) | 20.4 µM (inactive) | 9.29 µM (inactive) | 11.5 µM (inactive) | 14.4 µM (inactive) | 14.9 µM (inactive) | 13.4 µM (inactive) | 16 µM (inactive) | 14.9 µM (inactive) | 13.5 µM (inactive) | 1.06 µM (active) | 10.7 µM (inactive) | 15 µM (inactive) | 12.9 µM (inactive)

— ChEMBL document CHEMBL1201862, “PubChem BioAssay data set” (2004)
